Among the data in patent US10584128B2, “Bicyclic dihydropyrimidine-carboxamide derivatives as Rho-Kinase inhibitors” (CHIESI FARMACEUTICI S.p.A., priority 2016, dated 2020) are Ki values, retold here.

One may read the Ki as the dissociation constant of the complex between target and ligand, obtained from inhibition or displacement.

The target in one experiment is Rho kinase 2 (Homo sapiens, UniProt O75116). Briefly: In vitro Rho kinase inhibitory activity assay (ADP-Glo kit, Myelin Basic Protein substrate). Format: biochemical. The settings on record: 10 μM ATP, 25° C., read-out: ROCK2 inhibitory activity (Ki, range of activity). A digest of the protocol: (§1)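 Kinase activity is measured as ADP production (ADP-Glo, luminescence) after 1 hour at 25 °C with 10 μM ATP and 2.5 μM Myelin Basic Protein, following 30 min enzyme–compound preincubation. Buffer is 40 mM Tris pH7.5, 20 mM MgCl2, 0.1 mg/ml BSA, 50 μM DTT.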
In general terms: In ADP-Glo the light output rises with the ADP produced.

The next experiment concerns the target Rho kinase 1 (Homo sapiens, UniProt Q13464). The experiment is described as above. Format: biochemical. The settings on record: 10 μM ATP, 25° C., read-out: ROCK1 inhibitory activity (Ki, range of activity). A digest of the protocol: as §1

Each structure is given as a SMILES string. A value given as a limit tells only on which side of the number the result lay.

Chain of Rho kinase 2 (O75116 whole entry): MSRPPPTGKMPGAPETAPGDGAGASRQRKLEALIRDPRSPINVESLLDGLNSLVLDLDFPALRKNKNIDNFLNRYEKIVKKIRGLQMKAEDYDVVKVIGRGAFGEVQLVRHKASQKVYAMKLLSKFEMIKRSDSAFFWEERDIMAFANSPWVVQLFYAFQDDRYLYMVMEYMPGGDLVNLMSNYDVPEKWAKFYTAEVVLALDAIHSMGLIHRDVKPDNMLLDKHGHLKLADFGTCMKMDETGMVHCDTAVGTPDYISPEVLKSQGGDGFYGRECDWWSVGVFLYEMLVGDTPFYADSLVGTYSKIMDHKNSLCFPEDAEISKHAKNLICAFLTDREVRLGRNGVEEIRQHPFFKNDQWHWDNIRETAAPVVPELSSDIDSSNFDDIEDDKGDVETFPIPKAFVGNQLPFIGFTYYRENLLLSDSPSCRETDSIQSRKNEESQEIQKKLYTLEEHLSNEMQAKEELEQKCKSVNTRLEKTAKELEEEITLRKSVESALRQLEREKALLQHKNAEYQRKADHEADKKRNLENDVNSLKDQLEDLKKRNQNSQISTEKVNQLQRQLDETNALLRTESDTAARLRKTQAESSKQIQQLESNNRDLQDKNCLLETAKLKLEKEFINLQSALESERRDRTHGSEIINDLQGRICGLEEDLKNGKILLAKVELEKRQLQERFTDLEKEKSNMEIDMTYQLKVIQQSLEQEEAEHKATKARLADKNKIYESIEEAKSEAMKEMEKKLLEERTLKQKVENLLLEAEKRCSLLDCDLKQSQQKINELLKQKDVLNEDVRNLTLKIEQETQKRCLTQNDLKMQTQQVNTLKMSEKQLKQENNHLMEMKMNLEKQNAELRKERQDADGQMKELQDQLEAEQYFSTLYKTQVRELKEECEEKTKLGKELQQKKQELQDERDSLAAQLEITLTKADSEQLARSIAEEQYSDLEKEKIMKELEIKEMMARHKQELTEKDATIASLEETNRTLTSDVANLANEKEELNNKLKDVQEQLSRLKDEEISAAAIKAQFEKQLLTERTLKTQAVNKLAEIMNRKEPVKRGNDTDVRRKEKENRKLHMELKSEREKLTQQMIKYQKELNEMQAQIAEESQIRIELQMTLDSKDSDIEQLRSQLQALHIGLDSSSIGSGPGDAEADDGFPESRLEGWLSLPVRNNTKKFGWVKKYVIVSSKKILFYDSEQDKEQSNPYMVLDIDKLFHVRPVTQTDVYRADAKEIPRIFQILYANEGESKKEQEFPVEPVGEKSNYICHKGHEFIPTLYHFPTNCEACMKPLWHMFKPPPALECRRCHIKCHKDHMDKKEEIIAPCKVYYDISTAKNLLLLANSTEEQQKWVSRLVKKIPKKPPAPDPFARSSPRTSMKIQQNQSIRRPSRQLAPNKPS
Chain of Rho kinase 1 (Q13464 whole entry): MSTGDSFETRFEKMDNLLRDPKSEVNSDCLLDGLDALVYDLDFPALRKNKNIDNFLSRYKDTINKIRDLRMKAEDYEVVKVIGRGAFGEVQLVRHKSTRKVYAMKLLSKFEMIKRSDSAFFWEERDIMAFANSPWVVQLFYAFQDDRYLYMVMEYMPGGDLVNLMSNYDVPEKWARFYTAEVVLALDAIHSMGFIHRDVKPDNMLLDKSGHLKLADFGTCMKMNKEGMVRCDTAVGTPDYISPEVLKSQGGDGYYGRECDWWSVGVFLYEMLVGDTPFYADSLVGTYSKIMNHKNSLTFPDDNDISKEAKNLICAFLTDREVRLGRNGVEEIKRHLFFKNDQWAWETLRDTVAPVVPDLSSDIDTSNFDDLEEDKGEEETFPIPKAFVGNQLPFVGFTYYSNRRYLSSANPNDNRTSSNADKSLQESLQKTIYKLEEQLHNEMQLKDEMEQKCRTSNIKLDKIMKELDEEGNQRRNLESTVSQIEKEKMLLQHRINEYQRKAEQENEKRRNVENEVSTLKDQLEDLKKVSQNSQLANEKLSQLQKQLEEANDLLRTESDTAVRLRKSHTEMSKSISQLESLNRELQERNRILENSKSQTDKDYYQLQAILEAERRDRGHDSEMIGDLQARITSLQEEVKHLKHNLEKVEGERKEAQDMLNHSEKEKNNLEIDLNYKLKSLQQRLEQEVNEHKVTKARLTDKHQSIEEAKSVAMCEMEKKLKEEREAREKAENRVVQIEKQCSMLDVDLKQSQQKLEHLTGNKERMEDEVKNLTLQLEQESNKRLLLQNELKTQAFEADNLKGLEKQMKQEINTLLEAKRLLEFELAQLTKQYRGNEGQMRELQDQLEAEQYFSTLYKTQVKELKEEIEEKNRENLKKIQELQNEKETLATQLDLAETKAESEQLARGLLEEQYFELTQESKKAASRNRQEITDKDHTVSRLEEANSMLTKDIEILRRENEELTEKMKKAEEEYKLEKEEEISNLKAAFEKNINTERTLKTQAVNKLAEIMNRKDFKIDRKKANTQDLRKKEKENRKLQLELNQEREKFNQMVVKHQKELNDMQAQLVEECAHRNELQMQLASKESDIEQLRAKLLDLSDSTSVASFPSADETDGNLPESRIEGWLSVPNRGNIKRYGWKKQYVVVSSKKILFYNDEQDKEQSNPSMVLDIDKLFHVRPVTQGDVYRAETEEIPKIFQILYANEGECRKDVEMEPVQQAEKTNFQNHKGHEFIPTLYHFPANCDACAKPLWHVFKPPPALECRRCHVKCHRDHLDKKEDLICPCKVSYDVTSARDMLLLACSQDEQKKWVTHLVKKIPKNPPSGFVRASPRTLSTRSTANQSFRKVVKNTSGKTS

`CC1=C(C(=O)Nc2ccc3cnccc3c2)C(c2ccc(C(C)(C)C)cc2)n2nc(CO)cc2N1` (stereo not drawn) [Example 54, 7-(4-(tert-butyl)phenyl)-2-(hydroxymethyl)-N-(isoquinolin-6-yl)-5-methyl-4,7-dihydropyrazolo[1,5-a]pyrimidine-6-carboxamide]: the figures for the inhibition constant Ki at Rho kinase 2 and on Rho kinase 1 were less than 50 nM and 50 to 500 nM, respectively.
For the compound `CC1=C(C(=O)Nc2ccc3cnccc3c2)C(c2cccc(Oc3ccccc3)c2)n2nc(CO)cc2N1` (stereo not drawn) [Example 50, 2-(hydroxymethyl)-N-(isoquinolin-6-yl)-5-methyl-7-(3-phenoxyphenyl)-4,7-dihydropyrazolo[1,5-a]pyrimidine-6-carboxamide], the inhibition constant (Ki) is less than 50 nM on Rho kinase 2 and 50 to 500 nM at Rho kinase 1.
On the same counts, the results for `CC1=C(C(=O)Nc2ccc3cnccc3c2)C(c2ccc(C(F)(F)F)c(F)c2)n2nc(C(=O)NCC3CCN(C)CC3)cc2N1` (stereo not drawn) [Example 84, 7-(3-fluoro-4-(trifluoromethyl)phenyl)-N6-(isoquinolin-6-yl)-5-methyl-N2-((1-methylpiperidin-4-yl)methyl)-4,7-dihydropyrazolo[1,5-a]pyrimidine-2,6-dicarboxamide] are less than 50 nM and less than 50 nM.
Take `CC1=C(C(=O)Nc2cc3cn[nH]c3cc2F)C(c2ccc(C(F)(F)F)c(F)c2)n2nnnc2N1` (single isomer, unassigned) [Example 40A, N-(6-fluoro-1H-indazol-5-yl)-7-(3-fluoro-4-(trifluoromethyl)phenyl)-5-methyl-4,7-dihydrotetrazolo[1,5-a]pyrimidine-6-carboxamide]: the Ki on Rho kinase 2 and on Rho kinase 1 was less than 50 nM in each case.
For the compound `CC1=C(C(=O)Nc2ccc3cnccc3c2)C(C2Cc3ccccc3C2)n2nc(CO)cc2N1` (single isomer, unassigned) [Example 60A, 7-(2,3-dihydro-1H-inden-2-yl)-2-(hydroxymethyl)-N-(isoquinolin-6-yl)-5-methyl-4,7-dihydropyrazolo[1,5-a]pyrimidine-6-carboxamide], the Ki at Rho kinase 2 and on Rho kinase 1 was less than 50 nM in each case.
On to `CC1=C(C(=O)Nc2ccc3cnccc3c2)C(c2ccc(C(F)(F)F)c(F)c2)n2nc(NC(=O)CCN3CCCCC3)cc2N1` (single isomer, unassigned) [131A], for which the inhibitory constant (Ki) at Rho kinase 2 and on Rho kinase 1 was less than 50 nM each time.
For `CC1=C(C(=O)Nc2ccc3cnccc3c2)C(c2ccc(C(F)(F)F)c(F)c2)n2nc(N3CCN(C)CC3)cc2N1` (stereo not drawn) [Example 136, 7-(3-Fluoro-4-(trifluoromethyl)phenyl)-N-(isoquinolin-6-yl)-5-methyl-2-(4-methylpiperazin-1-yl)-4,7-dihydropyrazolo[1,5-a]pyrimidine-6-carboxamide], the Ki on Rho kinase 2 and at Rho kinase 1 was less than 50 nM throughout.
As for `CC1=C(C(=O)Nc2ccc3cnccc3c2)C(c2ccc(C(F)(F)F)c(F)c2)n2nc(NC(=O)c3ccc(CN(C)C)cc3)cc2N1` (single isomer, unassigned) [Example 137B, 2-(4-((Dimethylamino)methyl)benzamido)-7-(3-fluoro-4-(trifluoromethyl)-phenyl)-N-(isoquinolin-6-yl)-5-methyl-4,7-dihydropyrazolo[1,5-a]pyrimidine-6-carboxamide], the Ki at Rho kinase 2 and on Rho kinase 1 was less than 50 nM in each case.
As for `CC1=C(C(=O)Nc2ccc3[nH]ncc3c2)C(c2ccc(C(F)(F)F)cc2)n2nc(CN3CCOCC3)cc2N1` (stereo not drawn) [Example 107, N-(1H-indazol-5-yl)-5-methyl-2-(morpholinomethyl)-7-(4-(trifluoromethyl)phenyl)-4,7-dihydropyrazolo[1,5-a]pyrimidine-6-carboxamide], the Ki on Rho kinase 2 and on Rho kinase 1 was less than 50 nM throughout.
With `CC1=C(C(=O)Nc2ccc3[nH]ncc3c2)C(c2ccc(Cl)nc2)n2nc(CO)cc2N1` (stereo not drawn) [Example 70, 7-(6-chloropyridin-3-yl)-2-(hydroxymethyl)-N-(1H-indazol-5-yl)-5-methyl-4,7-dihydropyrazolo[1,5-a]pyrimidine-6-carboxamide], the inhibition constant Ki at Rho kinase 2 and on Rho kinase 1 was less than 50 nM in each case.
Take `CC1=C(C(=O)Nc2ccc3[nH]ncc3c2)C(c2ccc(C(F)(F)F)cc2)n2nc(CO)cc2N1` (single isomer, unassigned) [Example 69B, 2-(hydroxymethyl)-N-(1H-indazol-5-yl)-5-methyl-7-(4-(trifluoromethyl)phenyl)-4,7-dihydropyrazolo[1,5-a]pyrimidine-6-carboxamide]: the inhibition constant (Ki) at Rho kinase 2 and on Rho kinase 1 was less than 50 nM in each case.
Consider `CC1=C(C(=O)Nc2ccc3cnccc3c2)C(c2ccc(C(F)(F)F)c(F)c2)n2nc(CO)cc2N1` (single isomer, unassigned) [Example 65B, 7-(3-fluoro-4-(trifluoromethyl)phenyl)-2-(hydroxymethyl)-N-(isoquinolin-6-yl)-5-methyl-4,7-dihydropyrazolo[1,5-a]pyrimidine-6-carboxamide], for which the inhibitory constant (Ki) on Rho kinase 2 and on Rho kinase 1 was less than 50 nM each time.
Regarding `COCC1CN(Cc2cc3n(n2)C(c2ccc(C(F)(F)F)c(F)c2)C(C(=O)Nc2ccc4cnccc4c2)=C(C)N3)C1` (stereo not drawn) [Example 101, 7-(3-fluoro-4-(trifluoromethyl)phenyl)-N-(isoquinolin-6-yl)-2-((3-(methoxymethyl)azetidin-1-yl)methyl)-5-methyl-4,7-dihydropyrazolo[1,5-a]pyrimidine-6-carboxamide], the Ki on Rho kinase 2 and at Rho kinase 1 was less than 50 nM throughout.
On to `CC1=C(C(=O)Nc2ccc3cnccc3c2)C(c2ccc3ncn(C)c3c2)n2nc(CO)cc2N1` (stereo not drawn) [Example 45, 2-(hydroxymethyl)-N-(isoquinolin-6-yl)-5-methyl-7-(1-methyl-1H-benzo[d]imidazol-6-yl)-4,7-dihydropyrazolo[1,5-a]pyrimidine-6-carboxamide], for which the Ki on Rho kinase 2 and at Rho kinase 1 was more than 500 nM in each case.
As for `CCOC(=O)c1cc2n(n1)C(c1ccc(Cl)nc1)C(C(=O)Nc1ccc3[nH]ncc3c1)=C(C)N2` (stereo not drawn) [Example 5, ethyl 6-((1H-indazol-5-yl)carbamoyl)-7-(6-chloropyridin-3-yl)-5-methyl-4,7-dihydropyrazolo[1,5-a]pyrimidine-2-carboxylate], the Ki on Rho kinase 2 and on Rho kinase 1 was less than 50 nM in each case.
For `CCOC(=O)c1cc2n(n1)C(c1ccc(C(F)(F)F)c(F)c1)C(C(=O)Nc1cc3ccncc3s1)=C(C)N2` (stereo not drawn) [Example 42, ethyl 7-(3-fluoro-4-(trifluoromethyl)phenyl)-5-methyl-6-(thieno[2,3-c]pyridin-2-ylcarbamoyl)-4,7-dihydropyrazolo[1,5-a]pyrimidine-2-carboxylate], the Ki on Rho kinase 2 and on Rho kinase 1 was less than 50 nM in each case.
`CC1=C(C(=O)Nc2ccc3cnccc3c2)C(C2COc3ccccc3O2)n2nc(CO)cc2N1` (single isomer, unassigned) [Example 72C, 7-(2,3-dihydrobenzo[b][1,4]dioxin-2-yl)-2-(hydroxymethyl)-N-(isoquinolin-6-yl)-5-methyl-4,7-dihydropyrazolo[1,5-a]pyrimidine-6-carboxamide]: the Ki at Rho kinase 2 and at Rho kinase 1 was 50 to 500 nM throughout.
As to `CC1=C(C(=O)Nc2ccc3cnccc3c2)C(c2ccc(C)c(F)c2)n2nc(CO)cc2N1` (stereo not drawn) [Example 58, 7-(3-fluoro-4-methylphenyl)-2-(hydroxymethyl)-N-(isoquinolin-6-yl)-5-methyl-4,7-dihydropyrazolo[1,5-a]pyrimidine-6-carboxamide], the Ki at Rho kinase 2 and at Rho kinase 1 was less than 50 nM in each case.
With `CC1=C(C(=O)Nc2ccc3cnccc3c2)C(c2ccc(C(F)(F)F)c(F)c2)n2nc(C(=O)N(C)CCN(C)C)cc2N1` (stereo not drawn) [Example 80, N2-(2-(dimethylamino)ethyl)-7-(3-fluoro-4-(trifluoromethyl)phenyl)-N6-(isoquinolin-6-yl)-N2,5-dimethyl-4,7-dihydropyrazolo[1,5-a]pyrimidine-2,6-dicarboxamide], the Ki at Rho kinase 2 and on Rho kinase 1 was less than 50 nM in each case.
Consider `CC1=C(C(=O)Nc2ccc3cnccc3c2)C(c2ccc(C(F)(F)F)c(F)c2)n2nc(C(=O)NCCN3CCCCC3)cc2N1` (single isomer, unassigned) [77B], for which the inhibitory constant (Ki) at Rho kinase 2 and at Rho kinase 1 was less than 50 nM throughout.
In the case of `CC1=C(C(=O)Nc2ccc3cnccc3c2)C(c2ccc(C(F)(F)F)c(F)c2)n2nc(CN3CCS(=O)(=O)CC3)cc2N1` (stereo not drawn) [Example 108, 2-((1,1-Dioxidothiomorpholino)methyl)-7-(3-fluoro-4-(trifluoromethyl)phenyl)-N-(isoquinolin-6-yl)-5-methyl-4,7-dihydropyrazolo[1,5-a]pyrimidine-6-carboxamide], the Ki on Rho kinase 2 and at Rho kinase 1 was less than 50 nM each time.
As to `CC1=C(C(=O)Nc2ccc3cnccc3c2)C(c2ccc(Cl)c(F)c2)n2nc(CO)cc2N1` (stereo not drawn) [Example 57, 7-(4-chloro-3-fluorophenyl)-2-(hydroxymethyl)-N-(isoquinolin-6-yl)-5-methyl-4,7-dihydropyrazolo[1,5-a]pyrimidine-6-carboxamide], the Ki at Rho kinase 2 and at Rho kinase 1 was less than 50 nM each time.
Turning to `CC1=C(C(=O)Nc2ccc3cnccc3c2)C(c2ccc(C(F)(F)F)c(F)c2)n2nc(NC(=O)CN3CCCC3)cc2N1` (single isomer, unassigned) [132B], the inhibitory constant (Ki) at Rho kinase 2 and at Rho kinase 1 was more than 500 nM in each case.
`CC1=C(C(=O)Nc2ccc3[nH]ncc3c2)C(c2ccc(C(F)(F)F)cc2F)n2nnnc2N1` (single isomer, unassigned) [Example 26A, 7-(2-fluoro-4-(trifluoromethyl)phenyl)-N-(1H-indazol-5-yl)-5-methyl-4,7-dihydrotetrazolo[1,5-a]pyrimidine-6-carboxamide]: the Ki on Rho kinase 2 and at Rho kinase 1 was less than 50 nM in each case.
